US20140357655A1, “SPIROINDOLINE DERIVATIVES AS GONADOTROPIN- RELEASING HORMONE RECEPTOR ANTAGONISTS” (Bayer Intellectual Property GmbH, priority 2012, published 2014)
pIC50: −log10 of the molar value.

Target: T1, human GnRH receptor (Homo sapiens, UniProt P30968)
T1 sequence (P30968 1-328): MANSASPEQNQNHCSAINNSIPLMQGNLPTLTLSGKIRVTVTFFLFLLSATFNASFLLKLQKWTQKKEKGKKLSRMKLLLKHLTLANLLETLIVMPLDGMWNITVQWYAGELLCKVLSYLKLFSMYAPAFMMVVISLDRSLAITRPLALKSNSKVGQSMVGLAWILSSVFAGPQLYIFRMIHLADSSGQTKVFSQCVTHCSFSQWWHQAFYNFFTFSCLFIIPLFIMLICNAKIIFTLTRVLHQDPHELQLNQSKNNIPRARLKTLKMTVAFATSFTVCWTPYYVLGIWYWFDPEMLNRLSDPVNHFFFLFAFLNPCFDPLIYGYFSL
Assay: IP-One HTRF assay with buserelin (at EC80) stimulation
Assay type: cell-based
Conditions: CHO cells stably expressing human GnRH receptor, read-out: Potency in IP-One HTRF assay, given as IC50
Summary of the method: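 Ten-point duplicate titrations (20 μM to 1 nM) were fitted by 4-parameter model to normalized 665/620 nm HTRF ratios, 0% = no compound, 100% = no agonist. Assay measured IP1 accumulation in human GnRH-R CHO cells stimulated 1 h at 37° C with EC80 buserelin, then lysed 1 h at 22° C.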

Work on `COC(=O)c1cccc(S(=O)(=O)N2c3ccc(C(=O)NCc4ccccc4Cl)cc3C3(CCS(=O)(=O)CC3)C2C2CC2)c1` (single isomer, unassigned) [Example 60.2, methyl 3-({5-[(2-chlorobenzyl)carbamoyl]-2-cyclopropyl-1′,1′-dioxido-2′,3′,5′,6′-tetrahydrospiro[indole-3,4′-thiopyran]-1(2H)-yl}sulfonyl)benzoate] yielded a pIC50 of 5.94.
In the case of `O=C(O)c1cccc(S(=O)(=O)N2c3ccc(C(=O)NCc4ccccc4Cl)cc3C3(CCS(=O)(=O)CC3)C2C2CC2)c1` (single isomer, unassigned) [Example 61.1, 3-({5-[(2-chlorobenzyl)carbamoyl]-2-cyclopropyl-1′,1′-dioxido-2′,3′,5′,6′-tetrahydrospiro[indole-3,4′-thiopyran]-1(2H)-yl}sulfonyl)benzoic acid], the pIC50 was 7.08.
For `O=C(O)c1cccc(S(=O)(=O)N2c3ccc(C(=O)NCc4ccccc4Cl)cc3C3(CCS(=O)(=O)CC3)C2C2CC2)c1` (single isomer, unassigned) [Example 61.2, 3-({5-[(2-chlorobenzyl)carbamoyl]-2-cyclopropyl-1′,1′-dioxido-2′,3′,5′,6′-tetrahydrospiro[indole-3,4′-thiopyran]-1(2H)-yl}sulfonyl)benzoic acid], the pIC50 was 5.70.
For `COc1cccc(S(=O)(=O)N2c3ccc(C(=O)Nc4cccc(S(=O)(=O)N=C(N(C)C)N(C)C)c4)cc3C3(CCS(=O)(=O)CC3)C2C2CC2)c1` (single isomer, unassigned) [Example 62.1, N-(3-{[bis(dimethylamino)methylidene]sulfamoyl}phenyl)-2-cyclopropyl-1-[(3-methoxyphenyl)sulfonyl]-1,2,2′,3′,5′,6′-hexahydrospiro[indole-3,4′-thiopyran]-5-carboxamide 1′,1′-dioxide], the pIC50 was 5.19.
In the case of `COc1cccc(S(=O)(=O)N2c3ccc(C(=O)Nc4cccc(S(=O)(=O)N=C(N(C)C)N(C)C)c4)cc3C3(CCS(=O)(=O)CC3)C2C2CC2)c1` (single isomer, unassigned) [Example 62.2, N-(3-{[bis(dimethylamino)methylidene]sulfamoyl}phenyl)-2-cyclopropyl-1-[(3-methoxyphenyl)sulfonyl]-1,2,2′,3′,5′,6′-hexahydrospiro[indole-3,4′-thiopyran]-5-carboxamide 1′,1′-dioxide], the pIC50 was 8.32.
Work on `O=C(Nc1ccon1)c1ccc2c(c1)C1(CCS(=O)(=O)CC1)C(C1CC1)N2S(=O)(=O)c1ccc(F)cc1` (single isomer, unassigned) [Example 63.1, 2-cyclopropyl-1-[(4-fluorophenyl)sulfonyl]-N-(1,2-oxazol-3-yl)-1,2,2′,3′,5′,6′-hexahydrospiro[indole-3,4′-thiopyran]-5-carboxamide 1′,1′-dioxide] yielded a pIC50 of 7.06.
With `O=C(Nc1ccon1)c1ccc2c(c1)C1(CCS(=O)(=O)CC1)C(C1CC1)N2S(=O)(=O)c1ccc(F)cc1` (single isomer, unassigned) [Example 63.2, 2-cyclopropyl-1-[(4-fluorophenyl)sulfonyl]-N-(1,2-oxazol-3-yl)-1,2,2′,3′,5′,6′-hexahydrospiro[indole-3,4′-thiopyran]-5-carboxamide 1′,1′-dioxide] the pIC50 was 5.46.
`CN(C)C(=NS(=O)(=O)c1cccc(NC(=O)c2ccc3c(c2)C2(CCS(=O)(=O)CC2)C(C2CC2)N3S(=O)(=O)c2ccc(F)cc2)c1)N(C)C` (single isomer, unassigned) [Example 64.1, N-(3-{[bis(dimethylamino)methylidene]sulfamoyl}phenyl)-2-cyclopropyl-1-[(4-fluorophenyl)sulfonyl]-1,2,2′,3′,5′,6′-hexahydrospiro[indole-3,4′-thiopyran]-5-carboxamide 1′,1′-dioxide] was tested, and the pIC50 was 8.34.
